Measured values as given in the supplement of paper PMC10307832.

How the values were obtained:
Assay in all cases: relative viability (nuclei count vs DMSO), 5 days (fraction); higher = more cells survive
[1] = compound: CN[C@@H]1C[C@H]2O[C@@](C)([C@@H]1OC)n1c3ccccc3c3c4c(c5c6ccccc6n2c5c31)C(=O)NC4 [Staurosporine] + Nc1ncn([C@H]2C[C@H](O)[C@@H](CO)O2)c(=O)n1 [Decitabine] (partner 2 µM)
In short: (§1)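 Lung cancer cell lines, seeded in 1536-well plates, were treated the following day by pin tool with a single drug or with five library-drug doses (not always all listed) in √10 steps on top of a fixed anchor-drug dose. Cells were fixed and nuclei stained in one step after 5 days, and nuclei were counted. Relative viability is the nuclei count for treated wells divided by that for vehicle wells, reported as medians of duplicate plates.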

Sulindac + OSI-027 = compound: CC1=C(CC(=O)O)c2cc(F)ccc2/C1=C\c1ccc([S+](C)[O-])cc1 [Sulindac] + COc1cccc2cc(-c3nc([C@H]4CC[C@H](C(=O)O)CC4)n4ncnc(N)c34)[nH]c12 [OSI-027] (partner 0.5 µM)
In short: as §1

[2] = compound: O=c1[nH]cc(F)c(=O)[nH]1 [5-Fluorouracil] + COc1cc2c(Oc3ccc(NC(=O)C4(C(=O)Nc5ccc(F)cc5)CC4)cc3F)ccnc2cc1OCCCN1CCOCC1 [Foretinib] (partner 0.25 µM)
In short: as §1

Sulindac + Decitabine = compound: CC1=C(CC(=O)O)c2cc(F)ccc2/C1=C\c1ccc([S+](C)[O-])cc1 [Sulindac] + Nc1ncn([C@H]2C[C@H](O)[C@@H](CO)O2)c(=O)n1 [Decitabine] (partner 2 µM)
In short: as §1

Cell Line | relative viability ([1]; first compound 0.005 µM) | relative viability ([1]; first compound 0.05 µM) | relative viability ([1]; first compound 0.1581 µM) | relative viability ([1]; first compound 0.5 µM) | relative viability (Sulindac + OSI-027; first compound 0.08 µM) | relative viability (Sulindac + OSI-027; first compound 0.253 µM) | relative viability (Sulindac + OSI-027; first compound 0.8 µM) | relative viability (Sulindac + OSI-027; first compound 2.53 µM) | relative viability (Sulindac + OSI-027; first compound 8 µM) | relative viability ([2]; first compound 0.02 µM) | relative viability ([2]; first compound 0.2 µM) | relative viability ([2]; first compound 0.6325 µM) | relative viability ([2]; first compound 2 µM) | relative viability (Sulindac + Decitabine; first compound 0.08 µM) | relative viability (Sulindac + Decitabine; first compound 0.253 µM) | relative viability (Sulindac + Decitabine; first compound 0.8 µM) | relative viability (Sulindac + Decitabine; first compound 2.53 µM) | relative viability (Sulindac + Decitabine; first compound 8 µM) | relative viability ([1]; first compound 0.01581 µM)
201T | 0.884 | 0.787 | 0.649 | 0.672 | 0.746 | 0.802 | 0.744 | 0.727 | 0.879 | 1.18 | 0.509 | 0.211 | 0.176 | 0.879 | 0.874 | 0.818 | 0.848 | 0.928 | –
A549 | 0.348 | 0.108 | 0.0369 | 0.0407 | – | – | – | – | – | 0.992 | 0.945 | 0.517 | 0.156 | 0.262 | 0.247 | – | 0.29 | 0.232 | 0.239
A-427 | 0.573 | 0.282 | 0.18 | 0.149 | 0.495 | 0.474 | 0.443 | 0.459 | 0.584 | 0.961 | 1.19 | 1.08 | 0.625 | 0.469 | 0.521 | 0.552 | 0.52 | 0.6 | 0.448
ABC-1 | 0.578 | 0.353 | 0.259 | 0.157 | 0.503 | 0.447 | 0.361 | 0.466 | 0.489 | 1.05 | 1.12 | 0.991 | 0.548 | 1.04 | 1.09 | 1.02 | 0.821 | 1.16 | 0.563
BEN | 0.882 | 0.486 | 0.279 | 0.311 | 0.312 | 0.271 | 0.29 | 0.321 | 0.301 | 0.63 | 0.609 | 0.548 | 0.587 | 0.745 | 0.845 | 0.697 | 0.685 | 0.814 | 0.621
CAL-12T | – | – | – | – | 0.534 | 0.847 | 0.51 | 0.61 | 0.696 | 1.21 | 1.21 | 1.07 | 0.434 | – | – | – | – | – | –
COR-L23 | 0.362 | 0.193 | 0.092 | 0.0806 | 1.09 | 0.777 | 0.609 | 0.743 | 0.94 | 0.982 | 0.886 | 0.522 | 0.289 | 0.436 | 0.446 | 0.425 | 0.421 | 0.526 | 0.248
COR-L 105 | 0.603 | 0.381 | 0.332 | 0.229 | 0.653 | 0.747 | 0.498 | 0.635 | 0.843 | 1.2 | 1.14 | 0.929 | 0.595 | 0.648 | 0.698 | 0.621 | 0.538 | 0.769 | 0.44
Calu-6 | – | – | – | – | – | – | – | – | – | 0.853 | 0.941 | 0.871 | 0.491 | – | – | – | – | – | –
ChaGo-K-1 | 0.641 | 0.544 | 0.435 | 0.432 | 0.68 | 0.644 | 0.398 | 0.57 | 0.61 | 0.975 | 0.874 | 0.724 | 0.557 | 0.601 | 0.484 | 0.466 | 0.515 | 0.523 | –
EBC-1 | – | – | – | – | – | – | – | – | – | 0.101 | 0.106 | 0.0923 | 0.108 | – | – | – | – | – | –
EKVX | 0.31 | 0.202 | 0.191 | 0.18 | 0.674 | 0.713 | 0.641 | 0.598 | 0.684 | 0.707 | 0.321 | 0.177 | 0.149 | 0.312 | 0.316 | 0.305 | 0.341 | 0.352 | 0.271
EMC-BAC-2 | 0.554 | 0.222 | 0.214 | 0.208 | 0.375 | 0.407 | 0.311 | 0.371 | 0.473 | 1.1 | 1.01 | 1.05 | 0.963 | 0.994 | 1 | 0.888 | 0.934 | 1.08 | 0.269
EPLC-272H | 0.367 | 0.203 | 0.102 | 0.0597 | 0.274 | 0.286 | – | 0.256 | 0.327 | 0.665 | 0.446 | 0.296 | 0.163 | 0.313 | – | 0.301 | 0.369 | 0.428 | 0.193
H3255 | 0.53 | 0.189 | 0.162 | 0.117 | 0.523 | 0.622 | 0.474 | 0.576 | 0.593 | 0.861 | 1.08 | 0.872 | 0.656 | 0.577 | 0.662 | 0.503 | 0.566 | 0.615 | 0.404
HARA | 0.479 | 0.249 | 0.15 | 0.179 | 0.553 | 0.549 | 0.447 | 0.488 | 0.602 | 0.884 | 0.855 | 0.875 | 0.713 | 0.704 | 0.492 | 0.398 | 0.46 | 0.521 | 0.334
HCC-15 | 0.436 | 0.274 | 0.134 | 0.106 | 0.77 | 0.716 | 0.526 | 0.634 | 0.667 | 1.13 | 0.961 | 0.583 | 0.351 | 0.708 | 0.625 | 0.548 | 0.543 | 0.661 | –
